In brackets after ≈: the same amount, converted by molar mass. Read-outs that look alike come from different tables or passages of the source.
Key:
[1] = test system: eight reference strains, Gram-positive and Gram-negative; test: Agar diffusion test, direct antibacterial activity; assay type: cell-based; settings: for growth inhibition zone diameter: agar diffusion, on Gram-positive organisms
Experimental: Compounds 3–40, 42, 44–47, and 49 (Scheme 1, Scheme 2, Scheme 3, Scheme 4 and Scheme 5) were subjected to a detailed investigation of their direct and synergistic antibacterial activity and potential cytotoxicity by using several methods. The direct antibacterial activity of these compounds was determined using both agar diffusion and broth microdilution methods. The former was initially used to identify potentially active compounds and was tested on eight reference strains, with representatives of both Gram-positive and Gram-negative clinically relevant bacterial species or genera (Figure 4).
The compounds were provided as powders and dissolved in 100% DMSO at a final concentration of 50 mg/mL. When a compound was not soluble, DMSO was further added to lower the concentration to 25 mg/mL or, when necessary, 12.5 or 6.25 mg/mL, until the compound was completely solubilized. The primary screen used in the evaluation of the direct antibacterial activity through an agar diffusion test was implemented on a 8-channel, automated liquid-handling platform (PerkinElmer Janus Integrator, Waltham, Mass.), which was located under a custom-made class 1000 laminar flow cabinet (Faster, Cornaredo, Italy). Briefly, 1-well plates (Thermo Fisher Scientific, Waltham, Mass.), previously filled with Mueller–Hinton Agar medium, were inoculated with a suspension of the bacterium in a sterile 0.9% NaCl solution containing 1.5 × 10^8 CFU/mL, using a sterile swab. Indicator organisms included 4 Gram-positive (Bacillus subtilis ATCC 6633, Enterococcus faecalis ATCC 29212, Staphylococcus epidermidis ATCC 14990, and Streptococcus pyogenes ATCC 12344) and 4 Gram-negative (Escherichia coli CCUG^T, Klebsiella pneumoniae ATCC 13833, Pseudomonas aeruginosa ATCC 27853, and Acinetobacter baumannii ATCC 17978) strains, which were routinely propagated using Mueller–Hinton Agar plates. In total, 2 μL of each solution of compounds was dispensed on the plate surface (corresponding to 100, 50, 25, or 12.5 μg of compound according to its solubility). The controls included the solvent (100% DMSO), kanamycin, piperacillin, ceftazidime, vancomycin, and teicoplanin. The results were recorded as the diameter of the growth inhibition zone. The inhibition zones of the controls (max variation from expected diameter, ± 1 mm) were used as the validation criteria. The assays were performed at least in duplicate, and the position in which a single compound was spotted on the plate was randomly modified in any successive experiment.

Streptococcus pyogenes = test: Broth microdilution MIC; assay type: cell-based; settings: compound alone
Experimental: (§1) The minimum inhibitory concentration (MIC) and minimum bactericidal concentration (MBC) of the compounds were determined in triplicate using Mueller–Hinton broth and a bacterial inoculum of 5 × 10^5 CFU/mL, as recommended by the CLSI [26]. The minimum antibacterial concentration (MAC) of the compounds was determined in the presence of a fixed and subinhibitory concentration of colistin (as mentioned above).

Staphylococcus aureus = test: Broth microdilution MIC; assay type: cell-based; settings: compound alone
Experimental: as §1

Enterococcus faecalis = test: Broth microdilution MIC; assay type: cell-based; settings: compound alone
Experimental: as §1

Bacillus subtilis = test: Broth microdilution MIC; assay type: cell-based; settings: compound alone
Experimental: as §1

[2] = test system: Acinetobacter baumannii N50; test: Time-kill curve analysis; assay type: cell-based; settings: colistin alone at 2 µg/mL
Experimental: The time-dependent bacterial killing of colistin, compound 9, or a combination thereof was investigated using established methods. Briefly, a culture medium containing a starting inoculum of 5.0 × 10^6 CFU/mL of Acinetobacter baumannii N50 clinical isolate was incubated aerobically at 35 °C under orbital agitation (200 rpm) in Mueller–Hinton broth, in the absence (growth control) or presence of either 2 μg/mL of colistin (a concentration equivalent to the susceptibility breakpoint), 8 µg/mL of compound 9, or both. The bacterial count (expressed in CFU/mL) in the control and antibiotic-containing media was determined every hour for up to 6 h of incubation via serial 10-fold dilution and direct plating of 0.1 mL of the sample on the Mueller–Hinton Agar medium (without antibiotic), which was incubated for 24 h at 35 °C.

Escherichia coli CCUG^T [3] = test: MAC determination in the presence of subinhibitory colistin; assay type: cell-based; settings: for MAC Eco: in the presence of 0.5 × MIC colistin; for MIC/MAC Ratio Eco: minimal ratio of MIC of compound alone to MAC with 0.5 × MIC colistin
Experimental: as §1

[4] = test system: Klebsiella pneumoniae ATCC 13833; test: as above; assay type: cell-based; settings: for MAC Kpn: in the presence of 0.5 × MIC colistin; for MIC/MAC Ratio Kpn: minimal ratio of MIC of compound alone to MAC with 0.5 × MIC colistin
Experimental: as §1

A. baumannii N50 = test: Chequerboard analysis with colistin; assay type: cell-based, Acinetobacter baumannii; settings: combination with colistin; MDR, colistin-resistant isolate
Description: (§2) Carbapenem-resistant, colistin-resistant, and XDR clinical isolates were kindly provided by Prof. Gian Maria Rossolini (University of Florence, Italy). Klebsiella pneumoniae SI-004Bo is a KPC-producing, pandrug-resistant isolate (KKBO-4 [17]) selected in vivo during colistin therapy (colistin resistance mechanism, IS-mediated insertional inactivation of mgrB). Acinetobacter baumannii N50 is an OXA-24-producing clinical isolate resistant to all β-lactams, aminoglycosides, and fluoroquinolones.
(§3) The chequerboard analysis is a two-dimensional array in which individual microplate wells contain a unique combination of the concentrations of the tested compound and colistin. Tested concentrations of the compound ranged from 64 to 0.06 μg/mL along the x-axis, whereas polymyxin E1 concentrations ranged from 2 to 0.03 μg/mL (or 32–0.5 μg/mL when polymyxin E1-resistant clinical isolates were used) and varied along the y-axis. Determining the fractional inhibitory concentration (FIC) of both compounds and computing the average FIC index allowed us to determine whether a synergistic, additive, or antagonistic activity between the tested compounds could be observed. A synergistic activity occurred when the average FIC index was equal to or less than 0.5 [21, 27].

A. baumannii ATCC 17978 = test: Chequerboard analysis with colistin; assay type: cell-based, Acinetobacter baumannii; settings: combination with colistin; synergy when ≤0.5
Experimental: as §3

[5] = test system: Acinetobacter baumannii N50; test: MBC determination in the presence of colistin; assay type: cell-based; settings: in the presence of 2 µg/mL of colistin
Experimental: as §1

K. pneumoniae SI-004Bo = test: Chequerboard analysis with colistin; assay type: cell-based, Klebsiella pneumoniae; settings: combination with colistin; pandrug-resistant, colistin-resistant isolate
Description: as §2, §3

Hemolytic activity = assay type: cell-based; settings: 0.025–10 μg of compound
Experimental: The hemolytic activity of compounds 1, 2, 8, 9, 45, and 49 (0.025–10 μg) was investigated using the method described by Bechlars et al.. Triton X-100 was used as the hemolysis control and DMSO as the negative control.

[6] = test system: Acinetobacter baumannii ATCC 17978; test: MAC determination in the presence of subinhibitory colistin; assay type: cell-based; settings: for MAC Aba: in the presence of 0.5 × MIC colistin; for MIC/MAC Ratio Aba: minimal ratio of MIC of compound alone to MAC with 0.5 × MIC colistin
Experimental: as §1

K. pneumoniae ATCC 13833 = test: Chequerboard analysis with colistin; assay type: cell-based, Klebsiella pneumoniae; settings: combination with colistin; synergy when ≤0.5
Experimental: as §3

E. coli CCUG^T = test: Chequerboard analysis with colistin; assay type: cell-based, Escherichia coli; settings: combination with colistin; synergy when ≤0.5
Experimental: as §3

[7] = test system: Klebsiella pneumoniae ATCC 13833; set-up: method as in PMID 32435403; settings: parent compounds, cited from earlier work; for MAC Kpn: in the presence of 0.5 × MIC colistin; for MIC/MAC Ratio Kpn: minimal ratio
[8] = test system: eight reference strains, Gram-positive and Gram-negative; set-up: method as in PMID 32435403; settings: parent compound; cited from earlier work
Escherichia coli CCUG^T [9] = test system: Escherichia coli CCUG^T; set-up: method as in PMID 32435403; settings: parent compounds, cited from earlier work; for MAC Eco: in the presence of 0.5 × MIC colistin; for MIC/MAC Ratio Eco: minimal ratio
[10] = test system: Acinetobacter baumannii ATCC 17978; set-up: method as in PMID 32435403; settings: parent compounds, cited from earlier work; for MAC Aba: in the presence of 0.5 × MIC colistin; for MIC/MAC Ratio Aba: minimal ratio
[11] = test system: bacterial reference strains; test: Broth microdilution MIC, direct activity; assay type: cell-based
Experimental: as §1

MIC (Streptococcus pyogenes) | MIC (Staphylococcus aureus) | MIC (Enterococcus faecalis) | MIC (Bacillus subtilis) | Molecule | growth inhibition zone diameter [1] | melting point | Average FIC Index (A. baumannii N50) | Average FIC Index (A. baumannii ATCC 17978) | Average FIC Index (K. pneumoniae SI-004Bo) | hemolytic activity (Hemolytic activity) | Average FIC Index (K. pneumoniae ATCC 13833) | Average FIC Index (E. coli CCUG^T) | further results
16 µg/mL (≈ 38 µM) | 32 µg/mL (≈ 76 µM) | 32 µg/mL (≈ 76 µM) | 32 µg/mL (≈ 76 µM) | Cc1c(C(=O)Nc2ccccc2C(=O)O)nn(-c2ccc(Cl)cc2)c1-n1cccc1 [Compound 44, 2-[[[1-(4-Chlorophenyl)-4-methyl-5-(1H-pyrrol-1-yl)-1H-pyrazol-3-yl]carbonyl]amino]benzoic Acid] | up to 18 mm | 270 to 272 °C | – | – | – | – | – | – | –
– | – | – | – | Colistin [reference compound] | – | – | – | – | – | – | – | – | bactericidal effect (time-kill) [2]: not expectedly able to show any bactericidal effect
– | – | – | – | Cc1c(C(=O)Nc2ccc(S(C)(=N)=O)cc2)nn(-c2ccc(Cl)cc2)c1-n1cccc1 (centres unmarked) [Compound 49, 1-(4-Chlorophenyl)-4-methyl-N-[4-(S-methylsulfonimidoyl)phenyl]-5-(1H-pyrrol-1-yl)-1H-pyrazole-3-carboxamide] | – | 207 to 210 °C | 0.31 | 0.38 | 1 | no hemolytic activity could be observed | 0.39 | 0.32 | MAC Eco (Escherichia coli CCUG^T [3]): 8 µg/mL; MIC/MAC Ratio Eco (Escherichia coli CCUG^T [3]): 64; MAC Kpn [4]: 4 µg/mL; MIC/MAC Ratio Kpn [4]: 128; MBC [5]: > 64 µg/mL; MAC Aba [6]: 8 µg/mL; MIC/MAC Ratio Aba [6]: 64
16 µg/mL (≈ 30.3 µM) | 32 µg/mL (≈ 60.6 µM) | 32 µg/mL (≈ 60.6 µM) | 32 µg/mL (≈ 60.6 µM) | CCOC(=O)NS(=O)(=O)c1ccc(NC(=O)c2nn(-c3ccc(Cl)cc3)c(-n3cccc3)c2C)cc1 [Compound 47, Ethyl [[4-[1-(4-Chlorophenyl)-4-methyl-5-(1H-pyrrol-1-yl)-1H-pyrazole-3-carboxamido]phenyl]sulfonyl]carbamate] | up to 18 mm | 188 to 190 °C | – | – | – | – | – | – | –
– | – | – | – | O=C(NCc1ccc2c(c1)OCO2)c1cnn(-c2ccccc2)c1-n1cccc1 [Compound 1] | – | – | 0.5 | 0.38 | 1 | no hemolytic activity could be observed | 0.5 | 0.5 | MAC Kpn [7]: 64 µg/mL; MIC/MAC Ratio Kpn [7]: 8; direct antibacterial activity [8]: no direct antibacterial activity was observed; MAC Eco (Escherichia coli CCUG^T [9]): 64 µg/mL; MIC/MAC Ratio Eco (Escherichia coli CCUG^T [9]): 8; MAC Aba [10]: 32 µg/mL; MIC/MAC Ratio Aba [10]: 16
– | – | – | – | Cc1c(C(=O)N(C)CCN(C)C)nn(-c2ccc(Cl)cc2)c1-n1cccc1 [Compound 2] | – | – | 0.4 | 0.39 | 1 | no hemolytic activity could be observed | 0.5 | 0.31 | MAC Kpn [7]: 32 µg/mL; MIC/MAC Ratio Kpn [7]: 16; MAC Eco (Escherichia coli CCUG^T [9]): 64 µg/mL; MIC/MAC Ratio Eco (Escherichia coli CCUG^T [9]): 8; MAC Aba [10]: 16 µg/mL; MIC/MAC Ratio Aba [10]: 32
– | – | – | – | Cc1c(C(=O)Nc2ccc(O)cc2)nn(-c2ccc(Cl)cc2)c1-n1cccc1 [Compound 45, 1-(4-Chlorophenyl)-N-(4-hydroxyphenyl)-4-methyl-5-(1H-pyrrol-1-yl)-1H-pyrazole-3-carboxamide] | – | 226 to 228 °C | 0.26 | 0.31 | 1 | no hemolytic activity could be observed | 0.31 | 0.31 | MAC Eco (Escherichia coli CCUG^T [3]): 4 µg/mL; MIC/MAC Ratio Eco (Escherichia coli CCUG^T [3]): 128; MAC Kpn [4]: 4 µg/mL; MIC/MAC Ratio Kpn [4]: 128; MBC [5]: > 64 µg/mL; MAC Aba [6]: 8 µg/mL; MIC/MAC Ratio Aba [6]: 64
16 µg/mL (≈ 38 µM) | 32 µg/mL (≈ 76 µM) | 32 µg/mL (≈ 76 µM) | 32 µg/mL (≈ 76 µM) | Cc1c(C(=O)Nc2ccc(C(=O)O)cc2)nn(-c2ccc(Cl)cc2)c1-n1cccc1 [Compound 40, 4-[[[1-(4-Chlorophenyl)-4-methyl-5-(1H-pyrrol-1-yl)-1H-pyrazol-3-yl]carbonyl]amino]benzoic Acid] | up to 18 mm | > 250 °C | – | – | – | – | – | – | –

Molecule | MIC (Streptococcus pyogenes) | MIC (Staphylococcus aureus) | MIC (Enterococcus faecalis) | MIC (Bacillus subtilis) | growth inhibition zone diameter [1] | melting point | Average FIC Index (A. baumannii N50) | Average FIC Index (A. baumannii ATCC 17978) | Average FIC Index (K. pneumoniae SI-004Bo) | hemolytic activity (Hemolytic activity) | Average FIC Index (K. pneumoniae ATCC 13833) | Average FIC Index (E. coli CCUG^T) | further results
Cc1c(C(=O)Nc2cccc(C(=O)O)c2)nn(-c2ccc(Cl)cc2)c1-n1cccc1 [Compound 42, 3-[[[1-(4-Chlorophenyl)-4-methyl-5-(1H-pyrrol-1-yl)-1H-pyrazol-3-yl]carbonyl]amino]benzoic Acid] | 16 µg/mL (≈ 38 µM) | 32 µg/mL (≈ 76 µM) | 32 µg/mL (≈ 76 µM) | 32 µg/mL (≈ 76 µM) | up to 18 mm | 248 to 250 °C | – | – | – | – | – | – | direct-acting antibacterial activity (agar diffusion) ([1]; eight reference strains): broad-spectrum, though moderate, direct-acting antibacterial activity; MIC [11]: ≥ 512 µg/mL

— publication PMC9774939, “Optimization of Pyrazole Compounds as Antibiotic Adjuvants Active against Colistin- and Carbapenem-Resistant Acinetobacter baumannii” (Antibiotics, 2022)
